Experiments:
human plasma = test: Plasma protein binding, human plasma (equilibrium dialysis); type: in vitro ADME
Description: J. Plasma Protein Binding
The pharmacokinetic and pharmacodynamic properties of drugs are largely a function of the reversible binding of drugs to plasma or serum proteins such as albumin and α1-acid glycoprotein. In general, only unbound drug is available for diffusion or transport across cell membranes, and for interaction at the pharmacological target. On the other hand, drugs with low plasma protein binding generally have large volumes of distribution and rapid clearance since only unbound drug is available for glomerular filtration and, in some cases, hepatic clearance. Thus, the extent of plasma protein binding can influence efficacy, distribution and elimination. The ideal range for plasma protein binding is in the range of 87-98% for most drug products.
Protein binding studies were performed using human plasma. Briefly, 96-well microplates were used to incubate various concentrations of the test article for 60 min at 37° C. Bound and unbound fractions are separated by equilibrium dialysis, where the concentration remaining in the unbound fraction is quantified by LC-MS or LC-MS-MS analysis. […].
The table below presents protein binding data for representative compounds of the present invention in both human and rat plasma.

CYP1A2 = biological target: T1, CYP1A2 (Homo sapiens, UniProt P05177); test: Cytochrome P450 inhibition, CYP1A2; type: in vitro ADME; settings: read-out: IC50 1A2
T1 construct: purchased BD Gentest, Becton-Dickinson (Supersomes); host or cells: insect cells
T1 sequence (P05177 1-516): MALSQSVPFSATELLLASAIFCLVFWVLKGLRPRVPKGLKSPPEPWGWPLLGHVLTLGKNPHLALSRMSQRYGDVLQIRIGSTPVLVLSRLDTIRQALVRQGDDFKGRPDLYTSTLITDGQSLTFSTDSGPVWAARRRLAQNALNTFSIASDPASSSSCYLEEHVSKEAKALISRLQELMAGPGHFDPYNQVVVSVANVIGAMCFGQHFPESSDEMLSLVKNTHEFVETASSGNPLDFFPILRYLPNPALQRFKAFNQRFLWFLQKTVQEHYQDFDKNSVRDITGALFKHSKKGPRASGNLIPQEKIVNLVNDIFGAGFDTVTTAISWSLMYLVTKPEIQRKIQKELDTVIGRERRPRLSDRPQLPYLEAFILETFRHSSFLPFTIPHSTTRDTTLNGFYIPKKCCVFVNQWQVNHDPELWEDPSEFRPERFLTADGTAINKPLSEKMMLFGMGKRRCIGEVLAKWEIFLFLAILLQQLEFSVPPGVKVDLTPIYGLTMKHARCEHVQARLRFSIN
Description: (§1) K. Assay for Cytochrome P450 Inhibition
(§2) Cytochrome P450 enzymes are implicated in the phase I metabolism of drugs. The majority of drug-drug interactions are metabolism-based and, moreover, these interactions typically involve inhibition of cytochrome P450s. Six CYP450 enzymes (CYP1A2, CYP2C8, CYP2C9, CYP2C19, CYP2D6 and CYP3A4) appear to be commonly responsible for the metabolism of most drugs and the associated drug-drug interactions. Assays to determine the binding of compounds of the invention to the various metabolically important isoforms of cytochrome P450 metabolizing enzymes are commercially available, for example NoAb BioDiscoveries (Mississaugua, ON, Canada) and Absorption Systems (Exton, Pa., USA). As well, a number of appropriate methods have been described or reviewed in the literature. (White, R. E. Ann. Rev. Pharmacol. Toxicol. 2000, 40, 133-157; Li, A. P. Drug. Disc. Today 2001, 6, 357-366; Turpeinen, M.; Korhonen, L. E. Tolonen, A.; et al. Eur. J. Pharm. Sci, 2006, 29, 130-138.)
(§3) The key aspects of the experimental method were as follows: • 1. […] Assays monitored, via fluorescence detection, the formation of a fluorescent metabolite following incubation of the microsomes with a specific CYP substrate. • 3. Compounds of the present invention were tested in duplicate samples at eight test concentrations using 3-fold serial dilutions (concentration range of 0.0457 to 100 μM). • 4. For each CYP-450 enzyme, a specific inhibitor was tested in duplicate at eight concentrations as a positive control. • 5. The concentration of the inhibitor or test compound that inhibited metabolite formation by 50% (IC50) was calculated by non-linear regression analysis of the % inhibition vs. log concentration (M) curve.

CYP2C19 = biological target: T2, CYP2C19 (Homo sapiens, UniProt P33261); test: Cytochrome P450 inhibition, CYP2C19; type: in vitro ADME; settings: read-out: IC50 2C19
T2 construct: purchased BD Gentest, Becton-Dickinson (Supersomes); host or cells: insect cells
Description: as §1, §2, §3

CYP2B6 = biological target: T3, CYP2B6 (Homo sapiens, UniProt P20813); test: Cytochrome P450 inhibition, CYP2B6; type: in vitro ADME; settings: read-out: IC50 2B6
T3 construct: purchased BD Gentest, Becton-Dickinson (Supersomes); host or cells: insect cells
T3 sequence (P20813 1-491): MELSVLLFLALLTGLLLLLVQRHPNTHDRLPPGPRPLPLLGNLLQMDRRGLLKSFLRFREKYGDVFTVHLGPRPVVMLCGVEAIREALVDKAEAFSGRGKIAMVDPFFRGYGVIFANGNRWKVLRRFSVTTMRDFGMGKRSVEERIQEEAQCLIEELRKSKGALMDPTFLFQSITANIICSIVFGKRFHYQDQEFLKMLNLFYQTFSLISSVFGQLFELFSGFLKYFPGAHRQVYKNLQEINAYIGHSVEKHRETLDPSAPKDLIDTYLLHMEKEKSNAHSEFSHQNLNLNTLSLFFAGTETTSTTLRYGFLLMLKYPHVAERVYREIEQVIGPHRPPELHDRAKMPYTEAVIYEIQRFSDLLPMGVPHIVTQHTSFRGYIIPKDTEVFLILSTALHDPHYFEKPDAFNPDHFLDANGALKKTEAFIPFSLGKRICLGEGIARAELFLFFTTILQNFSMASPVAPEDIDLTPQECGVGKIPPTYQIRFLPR
Description: as §1, §2, §3

CYP2E1 = biological target: T4, CYP2E1 (Homo sapiens, UniProt P05181); test: Cytochrome P450 inhibition, CYP2E1; type: in vitro ADME; settings: read-out: IC50 2E1
T4 construct: purchased BD Gentest, Becton-Dickinson (Supersomes); host or cells: insect cells
Description: as §1, §2, §3

[1] = Pharmacokinetic analysis (oral bioavailability, elimination half-life) in the rat; type: in vivo; settings: oral administration, HPLC-MS
Procedure, shortened: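 Rat, oral dosing at 8 mg/kg (one compound at 2 mg/kg). Plasma levels by HPLC-MS, giving oral bioavailability and elimination half-life.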

T4 sequence (P05181 whole entry): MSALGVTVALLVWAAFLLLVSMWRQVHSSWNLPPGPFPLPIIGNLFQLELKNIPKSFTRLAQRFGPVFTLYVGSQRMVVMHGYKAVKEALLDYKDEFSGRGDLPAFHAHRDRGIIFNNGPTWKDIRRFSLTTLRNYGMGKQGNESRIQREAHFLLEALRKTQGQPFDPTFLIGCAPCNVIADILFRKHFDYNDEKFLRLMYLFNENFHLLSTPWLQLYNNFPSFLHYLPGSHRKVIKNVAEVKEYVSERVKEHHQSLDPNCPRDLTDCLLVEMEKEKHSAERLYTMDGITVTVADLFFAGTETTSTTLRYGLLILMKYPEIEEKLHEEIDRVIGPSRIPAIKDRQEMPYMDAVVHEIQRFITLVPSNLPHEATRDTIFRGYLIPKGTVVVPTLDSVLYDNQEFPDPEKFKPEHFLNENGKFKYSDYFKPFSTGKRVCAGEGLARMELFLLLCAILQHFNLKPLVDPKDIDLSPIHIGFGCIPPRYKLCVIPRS
T2 sequence (P33261 whole entry): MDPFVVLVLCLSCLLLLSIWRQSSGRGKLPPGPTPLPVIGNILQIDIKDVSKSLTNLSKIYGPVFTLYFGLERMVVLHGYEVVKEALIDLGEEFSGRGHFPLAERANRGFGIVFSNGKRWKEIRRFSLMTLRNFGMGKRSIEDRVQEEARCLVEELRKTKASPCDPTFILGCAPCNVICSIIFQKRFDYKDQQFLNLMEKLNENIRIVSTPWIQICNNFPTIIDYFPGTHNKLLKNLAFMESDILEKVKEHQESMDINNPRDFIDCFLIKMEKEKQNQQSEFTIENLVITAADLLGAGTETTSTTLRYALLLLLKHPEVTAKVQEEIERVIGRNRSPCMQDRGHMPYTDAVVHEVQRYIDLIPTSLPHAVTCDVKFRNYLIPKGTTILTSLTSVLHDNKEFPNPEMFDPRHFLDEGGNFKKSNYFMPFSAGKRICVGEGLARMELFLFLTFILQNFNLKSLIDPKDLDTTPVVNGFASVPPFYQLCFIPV

| Compound | Human Plasma Protein Binding (%) (human plasma; test concentration 3 μg/mL) | IC50 (CYP1A2) | IC50 (CYP2C19) | IC50 (CYP2B6) | IC50 (CYP2E1) | Oral Bioavailability (rat, % F) ([1]; 8 mg/kg dose) | half-life ([1]; plasma, 8 mg/kg dose, read-out: Elimination Half-life (t1/2, rat, min)) | Elimination Half-life (t1/2, rat, min) ([1]; 8 mg/kg dose) | Elimination Half-life (t1/2, rat, min) ([1]; 2 mg/kg dose (compound 822)) | Oral Bioavailability (rat, % F) ([1]; 2 mg/kg dose (compound 822)) | Human Plasma Protein Binding (%) (human plasma; test concentration 1 μg/mL) | Human Plasma Protein Binding (%) (human plasma; test concentration 5 μg/mL) |
| --- | --- | --- | --- | --- | --- | --- | --- | --- | --- | --- | --- | --- |
| C[C@@H]1C(=O)N[C@H](Cc2ccc(O)cc2)C(=O)NCCCc2ccc(F)cc2OCCN[C@@H](C2CC2)C(=O)N1C [Compound 809] | 88.4% | > 100 µM | > 100 µM | > 100 µM | > 100 µM | – | – | – | – | – | – | – |
| CC(C)C[C@H]1NC(=O)[C@@H](C)N(C)C(=O)[C@H](C2CC2)NC[C@@H](C)Oc2ccccc2CC[C@H](C)NC1=O [Compound 807] | – | > 100 µM | > 100 µM | > 100 µM | > 100 µM | 23 % F | 197 min | – | – | – | – | – |
| CC1NC(C2CC2)C(=O)N(C)C(C)C(=O)NC(Cc2ccc(O)cc2)C(=O)NCCCc2ccccc2OC1C (centres unmarked) [Compound 820] | 99.0% | > 100 µM | > 100 µM | > 100 µM | > 100 µM | 18 % F | – | 137 min | – | – | – | – |
| CC(C)C[C@H]1NC(=O)[C@@H](C)N(C)C(=O)[C@H](C2CC2)NCCOc2cc(F)ccc2CC[C@H](C)NC1=O [Compound 822] | 93.0% | > 100 µM | > 100 µM | > 100 µM | > 100 µM | – | – | – | 65 min | 51 % F | – | – |
| CC(C)CC1NC(=O)C(C)N(C)C(=O)C(C2CCCCC2)NCC(C)OC2CCCCC2CCCNC1=O (mixture of isomers) [Compound 828] | 76.8% | > 100 µM | > 100 µM | > 100 µM | > 100 µM | – | – | – | – | – | – | – |
| CC1CNC(C2CC2)C(=O)N(C)C(C)C(=O)NC(Cc2ccc(O)cc2)C(=O)NCCCC2CCCCC2O1 (mixture of isomers) [Compound 826] | 94.3% | > 100 µM | > 100 µM | > 100 µM | > 100 µM | 29 % F | – | 77 min | – | – | – | – |
| CC(C)CC1NC(=O)C(C)N(C)C(=O)C(C2CC2)NCC(C)OC2CCCCC2CCCNC1=O (mixture of isomers) [Compound 825] | – | > 100 µM | > 100 µM | > 100 µM | > 100 µM | 37 % F | – | 101 min | – | – | 83% | 70% |
| C[C@@H]1C(=O)N[C@H](Cc2ccc(O)cc2)C(=O)NCCCc2cccc3c2O[C@H](CC3)CN[C@@H](C2CC2)C(=O)N1C [Compound 803] | – | > 100 µM | > 100 µM | 53.6 µM | > 100 µM | 9 % F | – | 151 min | – | – | 97.8% | – |
| CC(C)C[C@H]1NC(=O)[C@@H](C)N(C)C(=O)[C@H](C2CC2)NCCOc2cc(F)ccc2CCCNC1=O [Compound 810] | 78.9% | 69 µM | > 100 µM | 102 µM | > 100 µM | 15 % F | – | 116 min | – | – | – | – |

Source: patent US10258602B2 (Ocera Therapeutics, Inc., priority 2007, dated 2019)
